In article PMC11988454, “Discovery of synthetic small molecules targeting the central regulator of Salmonella pathogenicity” (Science Advances, 2025):
Values joined by “and” are separate entries in the source; they are usually repeats but may differ in a detail not shown here. Equal entries are not always repeated.

Legend:
HilD variants = assay: Plasmid-based whole-cell assay, most frequent HilD substitutions; set-up: species or system S. enterica; conditions: C26 100 μM, 19 functional variants
Method: The retrieved sequences and script used to determine the most frequent point mutations in HilD can be accessed on the Zenodo repository. Site-directed mutagenesis was performed using KOD polymerase (Novagen). PhilA activation was monitored as described above using the plasmid-based whole-cell fluorescence assay.

[1] = system: S. enterica clinical isolates (SipA secretion through T3SS-1); assay: Plasmid-based SipA secretion assay in clinical isolates; type: cell-based; conditions: C26 100 μM, 75 strains
Method: The plasmid pT10-SipA-NLuc was electroporated into electrocompetent cells of S. enterica clinical isolates. Bacteria at an initial OD600 of 0.02 were grown for 5 hours in 1 ml of LB supplemented with 0.3 M NaCl, kanamycin (50 μg/ml), and either compound at 100 μM or 1% (v/v) DMSO. Cultures were pelleted, and then 25 μl of the supernatant was transferred to a 384-well plate to measure luminescence as previously described.

HilC = biological target: T1, HilC (Salmonella typhimurium, UniProt E1WAB2); assay: EMSA, binding to hilA promoter, HilC; type: biochemical, S. Typhimurium
T1 construct: His6 followed by TEV protease cleavage site (N, cleaved yes); made in house; host or cells: E. coli C41(DE3)
Method: EMSAs were performed similarly to as described previously ([39]) using a 62–base pair double-stranded (dsDNA) fragment of the hilA promoter, encompassing the A1 binding site ([82]). dsDNA fragments were generated by melting the complementary primers PhilA_A1_f / PhilA_A1_r (table S10) together in TE buffer [10 mM Tris (pH 8.0) and 1 mM EDTA] at 95°C for 10 min before slowly cooling to r.t. The forward primer was modified with a 5′-Cy5 fluorescent dye for detection. The protein (600 nM) was incubated with 50 nM labeled DNA in EMSA buffer [20 mM Tris (pH 8.0), 100 mM KCl, 100 μM EDTA, and 3% glycerol]. C26 was diluted first in DMSO and subsequently 1:100 into the protein-DNA sample. Samples were incubated at 37°C for 15 min, supplemented with diluted DNA loading dye, and separated on a 1.5-mm-thick, 6% (w/v) TBE polyacrylamide gel at 6°C at a constant voltage of 100 V. Gels were imaged using a ChemiDocMP imaging system (Bio-Rad).

SPI-encoded genes = type: cell-based, S. Typhimurium
Method: Salmonella was grown for 5 hours at 37°C in LB medium in the presence of 100 μM C26 or 1% (v/v) DMSO as a control. After growth, bacteria were harvested by centrifugation, and total RNA was isolated using the Qiagen RNeasy mini kit according to the manufacturer’s protocol. RNA-seq was performed on a HiSeq2500 with a 2 x 125–base pair paired-end read protocol. The Illumina Casava software was used to demultiplex the sequenced reads providing individual raw fastq sample files. Raw fastq files were prefiltered using the chastity filter to remove reads that contain a “Y” flag. FastQC (https://www.bioinformatics.babraham.ac.uk/projects/fastqc/, version v0.11.4) was used to determine the quality of the resulting fastq files. Subsequently, an adapter trimming/removal step was conducted with Cutadapt (https://pypi.python.org/pypi/cutadapt/, version 1.8.3). […] TopHat2 (https://ccb.jhu.edu/software/tophat/index.shtml, version v2.0.12) was used as aligner to map the remaining quality controlled reads to the Salmonella genome. Read counting to features (e.g., genes or exons) in the genome was performed with HTSeq-count (https://htseq.readthedocs.io/en/master/htseqcount.html, version 0.6.0.). Counting was performed using “union” mode on the feature “gene.” The stranded option was also set to “–stranded=no” to indicate to count features on both strands. Furthermore, the -r parameter from HTSeq was set to “pos” as this is the default of the output of TopHat’s “accepted_hits.bam” mapping file. For differential expression analysis, the raw read count table resulting from HTSeq counting is used and fed into the R package DESeq2 (version 1.10.1). Graphs were also produced in the R language (R version 3.2.1) mainly using the R package ggplot2 (version 2.2.0). Reports were produced using the R package rmarkdown (version 1.3).

[2] = C26 100 μM vs DMSO, single replicates (Fig 2E)
[3] = C26 100 μM, size of the down-regulation given without sign

T1 sequence (E1WAB2 whole entry): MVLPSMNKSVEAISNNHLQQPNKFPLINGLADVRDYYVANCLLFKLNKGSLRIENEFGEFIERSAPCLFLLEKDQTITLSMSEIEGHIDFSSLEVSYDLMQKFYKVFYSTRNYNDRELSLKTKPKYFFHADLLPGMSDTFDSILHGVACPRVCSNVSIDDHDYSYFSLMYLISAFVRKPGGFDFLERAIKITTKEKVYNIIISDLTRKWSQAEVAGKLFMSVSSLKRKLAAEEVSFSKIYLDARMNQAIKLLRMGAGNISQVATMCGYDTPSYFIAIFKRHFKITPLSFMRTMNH

## CN(CC(=O)NCc1ccc2c(c1)OCO2)Cc1ccc(Br)s1 [C26, N-(benzo[d][1,3]dioxol-5-ylmethyl)-2-{[(5-bromothiophen-2-yl)methyl](methyl)amino}acetamide]
HilD variants
  activity on the most frequent HilD substitution variants: inhibitory activity on all the tested variants at a level similar to that of the WT reference sequence
[1]
  sensitivity of clinical isolates (SipA secretion): all sensitive
HilC
  DNA binding activity of HilC (hilA promoter): no effect
SPI-encoded genes; [2]
  Log2 Fold change STM0972: -1.019 and -1.567 and -1.468
  Log2 Fold change STM05625: -1.06 and -1.782 and -1.1981
  Log2 Fold change avrA: -1.134 and -2.023 and -1.399
  Log2 Fold change hilA: -3.571 and -4.424 and -3.961
  Log2 Fold change hilC: -2.8 and -3.816 and -2.688
  Log2 Fold change hilD: -1.794 and -2.09 and -1.995
  Log2 Fold change iacP: -2.394 and -3.567 and -2.412
  Log2 Fold change iagB: -3.642 and -4.006 and -3.534
  Log2 Fold change invA: -3.221 and -3.81 and -3.166
  Log2 Fold change invB: -2.867 and -3.637 and -3.183
  Log2 Fold change invC: -2.536 and -3.183 and -2.8784
  Log2 Fold change invE: -3.292 and -4.06 and -3.2144
  Log2 Fold change invF: -3.621 and -4.389 and -3.592
  Log2 Fold change invG: -3.834 and -4.335 and -3.589
  Log2 Fold change invH: -3.135 and -3.596 and -3.2198
  Log2 Fold change invI: -3.283 and -3.556 and -3.358
  Log2 Fold change orgA: -1.913 and -2.484 and -2.0655
  Log2 Fold change orgB: -1.03 and -1.516 and -1.313
  Log2 Fold change orgC: -0.8446 and -1.317 and -1.218
  Log2 Fold change pagC: -0.9557 and -1.642 and -1.303
  Log2 Fold change pipB: -1.346 and -1.626 and -1.791
  Log2 Fold change prgH: -2.242 and -3.146 and -2.589
  Log2 Fold change prgI: -2.528 and -3.17 and -2.85
  Log2 Fold change prgJ: -2.351 and -3.201 and -2.717
  Log2 Fold change prgK: -2.159 and -2.912 and -2.508
  Log2 Fold change rtsA: -3.522 and -4.691 and -3.546
  Log2 Fold change sicA: -2.525 and -3.5667 and -2.5609
  Log2 Fold change sicP: -1.008 and -1.8772 and -1.275
  Log2 Fold change sifB: -1.447 and -2.07 and -1.848
  Log2 Fold change sipA: -2.154 and -3.4073 and -2.1103
  Log2 Fold change sipB: -2.364 and -3.5554 and -2.316
  Log2 Fold change sipC: -2.344 and -3.615 and -2.313
  Log2 Fold change sipD: -2.421 and -3.506 and -2.2134
  Log2 Fold change sopB: -1.308 and -2.976 and -1.42
  Log2 Fold change sopD: -1.407 and -0.6715 and -1.948
  Log2 Fold change sopE2: -1.5 and -2.647 and -1.472
  Log2 Fold change spaN: -2.873 and -3.527 and -3.123
  Log2 Fold change spaO: -2.648 and -3.446 and -2.941
  Log2 Fold change spaP: -2.823 and -3.907 and -2.993
  Log2 Fold change spaQ: -3 and -2.087 and -2.907
  Log2 Fold change spaR: -1.963 and -4.022 and -1.926
  Log2 Fold change spaS: -2.051 and -2.854 and -2.155
  Log2 Fold change sprB: -2.031 and -3.538 and -1.986
  Log2 Fold change ssaG: -1.637 and -2.322 and -2.8413
SPI-encoded genes; [3]
  log2 fold change expression RtsA: 3.82
  log2 fold change expression hilA: 3.94
  log2 fold change expression hilC: 3.02
  log2 fold change expression hilD: 1.95
